Experimental data reported in US8614068B2, “Process for producing hepcidin” (Hellenic Pasteur Institute, priority 2007, dated 2013).

Legend:
ferroportin (FPN1) = biological target: T1, ferroportin (FPN1) (Mus musculus, UniProt Q9JHI9); assay: Western blot of ferroportin expression in macrophages; format: cell-based, murine; conditions: RAW 264.7, 1 μM, 4 h at 37° C.
T1 construct: endogenous in cells; host or cells: RAW 264.7 murine macrophages
T1 sequence (Q9JHI9 1-570): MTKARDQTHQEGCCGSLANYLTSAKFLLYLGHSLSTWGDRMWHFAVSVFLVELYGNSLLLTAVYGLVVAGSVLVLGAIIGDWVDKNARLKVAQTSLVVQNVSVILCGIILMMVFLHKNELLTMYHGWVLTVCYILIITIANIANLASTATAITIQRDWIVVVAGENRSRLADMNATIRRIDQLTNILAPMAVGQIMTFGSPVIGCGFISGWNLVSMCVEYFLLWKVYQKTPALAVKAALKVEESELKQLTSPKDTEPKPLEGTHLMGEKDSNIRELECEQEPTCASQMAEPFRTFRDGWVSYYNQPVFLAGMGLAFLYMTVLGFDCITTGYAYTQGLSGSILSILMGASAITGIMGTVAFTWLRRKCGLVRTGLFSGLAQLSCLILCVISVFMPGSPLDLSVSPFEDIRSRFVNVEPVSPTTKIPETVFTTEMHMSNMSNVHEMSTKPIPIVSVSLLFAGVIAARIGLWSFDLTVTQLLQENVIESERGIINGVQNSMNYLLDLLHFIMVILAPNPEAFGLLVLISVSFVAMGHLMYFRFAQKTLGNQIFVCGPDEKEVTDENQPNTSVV

RAW 264.7 macrophages = assay: Labile Iron Pool (LIP) calcein assay; format: cell-based, murine; conditions: Hep-25His-treated RAW 264.7 macrophages
Experimental: FIG. 6. Recombinant tagged hepcidins increase the Labile Iron Pool in RAW 264.7 macrophages. RAW 264.7 macrophages were treated with 10 μM Hep-25His having the sequence of SEQ ID NO. 6, Hep-25MycHis having the sequence of SEQ ID NO. 8, Hep-20MycHis having the sequence of SEQ ID NO. 7 and negative peptide having the sequence of SEQ ID NO. 9 for 4 h at 37° C. PBS was used as negative and FAC at 30 μg/ml as positive control. Relative alterations of the LIP were monitored with calcein upon addition of isonicotinoyl-hydraxone salicylaldehyde. Data are expressed as mean±S.D. of two independent experiments performed in triplicates relative to control. **p<0.001, *p<0.05. Statistical analysis was performed with t-Test.
LIP assay—The fluorescent metalosensor calcein (Molecular Probes, Eugene, Oreg.) was used for the measurement of alterations in the levels of the LIP (Labile Iron Pool) (Murphy, A. T., Witcher, D. R., Luan, P., and Wroblewski, V. J. (2007) Blood 110, 1048-54). 1×10^6 RAW 264.7 macrophages were plated in 6-well plates. […] Fluorescence was measured with the Perkin Elmer LS55 fluorescent plate reader (Perkin Elmer LifeSciences, Boston Mass.) (488 nm excitation, 517 nm emission). […] Relative changes were expressed as percentage of the control. […]

E. coli strain ML35 = conditions: at 30 μM
Experimental: Antimicrobial activity of recombinant tagged hepcidins. E. coli strain ML35 was subjected to CFU assay in order to determine the antimicrobial activity of synthetic hepcidin 25 (s. Hep25) having the sequence os SEQ ID NO. 2, Hep-25His having the sequence of SEQ ID NO. 6, Hep-25MycHis having the sequence of SEQ ID NO. 8, Hep-20MycHis having the sequence of SEQ ID NO. 7 and negative peptide having the sequence SEQ ID NO. 9 at the concentrations indicated for 2 h at 37° C. Sodium phosphate buffer was used as negative control.
Antimicrobial assay—All purified recombinant hepcidins were tested for antibacterial activity against E. coli ML35 and BL21(DE) is a CFU assay (Porter E. M., van Dam E., Valore E. V., Ganz T., Broad-spectrum antimicrobial activity of human intestinal defensin 5, Infect. Immun. 65 (1997) 2396-2401.). Bacterial cell cultures were grown to OD600=0.2 (5×10^7 cfu/ml) and resuspended to a final concentration of 10^6 cfu/ml in 20mM sodium phosphate buffer, pH7.4. Various concentrations of peptides were added to a final volume of 100 μl and after incubation for 2 h at 37° C., surviving cells were plated in triplicates to LB/agar plates.
Antimicrobial activity of recombinant hepcidins—The colony forming unit assay (E. M. Porter, E. van Dam, E. V. Valore, T. Ganz, Broad-spectrum antimicrobial activity of human intestinal defensin 5, Infect. Immun. 65 (1997) 2396-2401) was used to determine the antimicrobial activity of the purified recombinant hepcidin forms against the E. coli strain, ML35. […] Surviving microbes were counted following incubation with various concentrations of recombinant hepcidin preparations, synthetic hepcidin or negative peptide for 2 h at 37° C.

hepcidin-25His [Hep-25His]
reduction of FPN1 in comparison to untreated cells (ferroportin (FPN1)): 37%±7
retention of iron, LIP levels (RAW 264.7 macrophages): increase in LIP levels
reduction of the number of surviving bacteria (E. coli strain ML35): 1000 fold
